{"source": "patent US7265096B2", "about": "(XenoPort, Inc., priority 2002, dated 2007)", "key": {"[1]": {"system": "human ENT1, ENT2, CNT1 and CNT3", "conditions": "literature (Mackey et al.; Fang et al.); cited from earlier work"}, "[2]": {"assay": "Pharmacokinetics and intestinal exposure to gemcitabine after oral dosing in mice", "format": "in vivo", "conditions": "male, mouse, blood, po, 20 mg-eq. gemcitabine/kg; read-out: Fpo (oral bioavailability)", "experimental": "Blood samples (0.5 mL) were obtained by cardiac puncture from 4 animals at each time point (1, 5, 10, 15, 30, 45 minutes and 1, 2, 4, 6 and 24 hr post-dosing). Samples were immediately transferred to tubes containing 10 μL of tetrahydrouridine (50 μg/mL in 50% methanol/water) to prevent further deamination and aliquots (100 μL) were quenched with a solution of 1% w/w formic acid in acetonitrile (300 μL). Quenched blood samples were stored at −80° C. until analyzed. Following collection of blood samples, the small intestine of each animal was removed, rinsed with saline, scraped to remove the mucosal layer, and the mucosal tissue was transferred to a pre-weighed vial containing 10 μL of tetrahydrouridine (50 μg/mL in 50% methanol/water). Sample vials were snap frozen in dry ice/acetone and stored at −80° C. until analyzed. Mucosal tissue samples were diluted 1:10 in water and 100 μL of the resulting sample was added to 400 μL of methanol."}, "CNT2": {"biological_target": "T1, CNT2 (Homo sapiens, UniProt O43868)", "T1 sequence (O43868 1-658)": "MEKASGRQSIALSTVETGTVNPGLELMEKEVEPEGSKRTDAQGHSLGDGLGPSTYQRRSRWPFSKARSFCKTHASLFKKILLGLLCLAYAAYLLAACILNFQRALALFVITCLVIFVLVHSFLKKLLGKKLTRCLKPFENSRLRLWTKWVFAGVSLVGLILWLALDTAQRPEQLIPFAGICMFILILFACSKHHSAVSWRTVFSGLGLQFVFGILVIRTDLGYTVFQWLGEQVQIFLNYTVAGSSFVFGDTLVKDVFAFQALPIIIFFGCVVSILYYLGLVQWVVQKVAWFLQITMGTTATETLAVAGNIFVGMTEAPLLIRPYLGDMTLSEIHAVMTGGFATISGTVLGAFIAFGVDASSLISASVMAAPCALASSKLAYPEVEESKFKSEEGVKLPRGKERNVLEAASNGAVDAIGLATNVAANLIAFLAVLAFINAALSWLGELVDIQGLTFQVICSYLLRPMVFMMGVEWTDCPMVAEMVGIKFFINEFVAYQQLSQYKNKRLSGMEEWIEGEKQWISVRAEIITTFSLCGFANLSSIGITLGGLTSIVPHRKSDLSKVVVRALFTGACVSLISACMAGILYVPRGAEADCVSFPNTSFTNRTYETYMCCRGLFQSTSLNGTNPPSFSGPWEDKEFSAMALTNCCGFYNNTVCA", "conditions": "literature (Mackey et al.; Fang et al.); cited from earlier work"}, "[3]": {"conditions": "intravenous infusion for up to 12 hours; cited from earlier work"}}}
{"smiles": "Nc1ccn([C@@H]2O[C@H](CO)[C@@H](O)C2(F)F)c(=O)n1", "note": "[gemcitabine, 2′,2′-difluoro-2′-deoxycytidine]", "values": [{"measurement": "Transport by human ENT1, ENT2, CNT1 and CNT3", "setting": "[1]", "result": "transported by human ENT1, ENT2, CNT1 and CNT3"}, {"measurement": "bioavailability", "setting": "[2]", "result": 20, "unit": "%"}, {"measurement": "Transport by CNT2", "setting": "CNT2", "result": "not the purine-selective concentrative transporter CNT2"}, {"measurement": "Dose reported to be tolerated in patients", "setting": "[3]", "result": 10, "unit": "mg/m^2/min"}]}
